From US8278320B2, “Azabicyclo[2.2.1]heptane compounds as alpha-7 nicotinic acetylcholine receptor ligands” (Bristol-Myers Squibb Company, priority 2009, dated 2012)
Where two headings read alike, the source gives them in different places.

Columns and labels:
[1] = target: T1, α-7 nicotinic ACh receptor ion channel expressed in mammalian HEK 293 cells (Rattus norvegicus, UniProt Q05941); assay: Ca2+-sensitive, fluorescence-based FLIPR assay for α-7 nicotinic acetylcholine receptor channel function (agonist activity); type: cell-based
Experimental: I) α7 Nicotinic Acetycholine Receptor Binding. Membranes were prepared for binding using HEK293 cells stably expressing the rat α7 nicotinic acetycholine receptor (rat α7 nAChR). Cells were homogenized at 4° C. in hypotonic lysis buffer consisting of 10 mM Tris (pH 7.4), 5 mM EDTA and protease inhibitors and centrifuged at 32000×g for 20 minutes. The pellet was washed once in membrane wash buffer consisting of 50 mM Tris (pH 7.4), 1 mM EDTA and protease inhibitors and centrifuged at 32000×g for 20 minutes. This pellet was then resuspended in assay buffer consisting 50 mM KH2PO4 (pH 7.4 at 25° C.), 1 mM EDTA, 0.005% Triton-X 100 and 0.1% (v/v) Sigma Protease Inhibitor Cocktail. Aliquots were then frozen in dry ice/ethanol and kept at −80° C. until the day of the assay. II) A Ca^2+-Sensitive, Fluorescence-Based Assay α-7 for Nicotinic Acetylcholine Receptor Channel Function In Mammalian Cells (“FLIPR”). Summary: Lead compounds are evaluated for agonist activity at α-7, α3β4, α4αβ2, and α1β1δ1ε sub-types of nicotinic ACh receptor ion channels expressed in mammalian HEK 293 cells. Agonist potency and efficacy values are determined from kinetic fluorescence Ca^2+ influx measurements made using a 384 well FLIPR (Fluorescence Image Plate Reader). […] The basal fluorescence from the cells is monitored in real time, followed by the acute addition of test compounds. […]
Target sequence in this assay (Q05941 23-502 limits assumed): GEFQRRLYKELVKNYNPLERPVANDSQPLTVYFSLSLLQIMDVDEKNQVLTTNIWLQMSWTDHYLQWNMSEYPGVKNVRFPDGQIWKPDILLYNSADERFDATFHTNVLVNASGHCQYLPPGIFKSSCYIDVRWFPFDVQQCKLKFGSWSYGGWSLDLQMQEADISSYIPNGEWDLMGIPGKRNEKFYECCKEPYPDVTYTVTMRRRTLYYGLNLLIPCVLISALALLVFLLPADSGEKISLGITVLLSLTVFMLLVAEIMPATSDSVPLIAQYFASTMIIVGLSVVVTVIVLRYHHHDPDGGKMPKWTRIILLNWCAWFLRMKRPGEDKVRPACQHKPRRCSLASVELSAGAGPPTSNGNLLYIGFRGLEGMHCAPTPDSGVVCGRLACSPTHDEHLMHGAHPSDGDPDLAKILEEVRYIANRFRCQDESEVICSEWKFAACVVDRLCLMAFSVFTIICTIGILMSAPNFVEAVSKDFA

[2] = target: T1, α-7 nicotinic ACh receptor ion channel expressed in mammalian HEK 293 cells; assay: as above; type: cell-based; design: expressed in transfected cells; conditions: Ca2+ flux, HEK-293 cells, Fluo-4
Experimental: I) α7 Nicotinic Acetycholine Receptor Binding. Membranes were prepared for binding using HEK293 cells stably expressing the rat α7 nicotinic acetycholine receptor (rat α7 nAChR). Cells were homogenized at 4° C. in hypotonic lysis buffer consisting of 10 mM Tris (pH 7.4), 5 mM EDTA and protease inhibitors and centrifuged at 32000×g for 20 minutes. The pellet was washed once in membrane wash buffer consisting of 50 mM Tris (pH 7.4), 1 mM EDTA and protease inhibitors and centrifuged at 32000×g for 20 minutes. This pellet was then resuspended in assay buffer consisting 50 mM KH2PO4 (pH 7.4 at 25° C.), 1 mM EDTA, 0.005% Triton-X 100 and 0.1% (v/v) Sigma Protease Inhibitor Cocktail. Aliquots were then frozen in dry ice/ethanol and kept at −80° C. until the day of the assay. II) A Ca^2+-Sensitive, Fluorescence-Based Assay α-7 for Nicotinic Acetylcholine Receptor Channel Function In Mammalian Cells (“FLIPR”). Summary: Lead compounds are evaluated for agonist activity at α-7, α3β4, α4αβ2, and α1β1δ1ε sub-types of nicotinic ACh receptor ion channels expressed in mammalian HEK 293 cells. Agonist potency and efficacy values are determined from kinetic fluorescence Ca^2+ influx measurements made using a 384 well FLIPR (Fluorescence Image Plate Reader). […] In this assay, channel expressing HEK cell lines seeded in 384 well assay plates are loaded with a membrane permeant fluorescent Ca^2+ indicator dye, whose 510 nm green emission signal increases in response to elevation of intracellular Ca^2+ concentration. The basal fluorescence from the cells is monitored in real time, followed by the acute addition of test compounds.
Materials and Methods: Reagents: The acetomethoxy (AM) ester of the Ca^2+ indicator dye Fluo-4 was obtained from InVitrogen, (Carlsbad, Calif.). Acetylcholine and all buffer constituents were purchased from Sigma Chemical Company, St. Louis, Mo. G418 and Minimal Essential Medium were purchased from InVitrogen Life Technologies, Carlsbad, Calif. Fetal bovine serum was purchased from (InVitrogen, Carlsbad, Calif.).
Cell Culture: HEK-293 cells were grown in Minimal Essential Medium containing 10% (v/v) fetal bovine serum at 37° C. in a 5% CO2 incubator. HEK-293 cells stably expressing the ion channels were grown in the same medium with the addition of 500 μg/ml G418.
Ca^2+ flux assays of Ca^2+ channels expressed in HEK-293 cells: HEK-293 cells expressing the ion channels of interest were plated in 384 well, black-walled, clear-bottomed, poly-D-lysine coated plates at a density of ˜20,000 cells/well in 20 μl of Minimal Essential Medium containing 10% (v/v) fetal bovine serum and incubated for 2 days at 29° C. in a 5% CO2 incubator. Prior to assay, cells were loaded with the Fluo-4 AM ester. […] Dye loading was allowed to proceed for 90 minutes at room temperature at which time the dye loading solution was removed and replaced with 40 μl/well of Hanks buffer. Cells loaded with dye were loaded onto a FLIPR384 (Molecular Devices, Sunnyvale, Calif.). Fluo-4 dye was excited using the 488 nm line of an argon laser. Emission was filtered using a 540+/−30 nm bandpass filter. For evaluation of the effects of test compounds using the Ca^2+ flux assay, compounds to be tested were provided in assay ready plates. For nicotinic receptor ion channel expressing cells, the assay was initiated by the addition of 20 μl/well of Hanks buffer containing test compounds. For all assays, data were collected at 1 Hz for 10 seconds (baseline), at which time the compound containing stimulus buffers are added, and further measurements collected at 0.33 Hz for 3 min.
Data Analysis: The statistical robustness of the nicotinic receptor Ca^2+ flux assays is determined from blanks and totals wells. […] The raw fluorescence units data files generated on the FLIPR plate reader are automatically exported and processed by in-house data analysis tools.
Target sequence in this assay (Q05941 23-502): as the sequence (Q05941 23-502 limits assumed) above

[3] = FLIPR α7 activity rating (EC50, nM), agonist potency class
[4] = agonist potency class, read-out: FLIPR α7 activity rating (EC50)

Row | SMILES | EC50 [2, 3] [nM] | EC50 [2, 4] [nM] | further results
1 | c1ccc2sc(NC3=NC[C@@]4(CN5CC[C@@H]4C5)O3)nc2c1 |  |  | EC50 [1]: < 100 nM
2 | Cc1cn(-c2cc(NC3=NC[C@@]4(C[N@@]5CC[C@@H]4C5)O3)ncn2)cn1 [Example 22, (3R,4R)—N-(6-(4-Methyl-1H-imidazol-1-yl)pyrimidin-4-yl)-4′H-1-azaspiro[bicyclo[2.2.1]heptane-3,5′-oxazol]-2′-amine] | 100 to 1000 |  | 
3 | COc1c(NC2=NC[C@@]3(C[N@@]4CC[C@@H]3C4)O2)ncnc1N1CCCC1 [Example 23, (3R,4R)—N-(5-Methoxy-6-(pyrrolidin-1-yl)pyrimidin-4-yl)-4′H-1-azaspiro[bicyclo[2.2.1]heptane-3,5′-oxazol]-2′-amine] |  | < 100 | 
4 | c1ccc2nc(NC3=NC[C@@]4(C[N@@]5CC[C@@H]4C5)O3)nnc2c1 [Example 24, (3R,4R)—N-(Benzo[e][1,2,4]triazin-3-yl)-4′H-1-azaspiro[bicyclo[2.2.1]heptane-3,5′-oxazol]-2′-amine] |  | < 100 | 
5 | Clc1ccc2oc(NC3=NC[C@@]4(C[N@@]5CC[C@@H]4C5)O3)nc2c1 [Example 25, (3R,4R)—N-(5-Chlorobenzo[d]oxazol-2-yl)-4′H-1-azaspiro[bicyclo[2.2.1]heptane-3,5′-oxazol]-2′-amine] |  | < 100 | 
6 | c1nc(NC2=NC[C@@]3(C[N@@]4CC[C@@H]3C4)O2)c2sccc2n1 [Example 27, (3R,4R)—N-(Thieno[3,2-d]pyrimidin-4-yl)-4′H-1-azaspiro[bicyclo[2.2.1]heptane-3,5′-oxazol]-2′-amine] | 100 to 1000 |  | 
7 | Cc1csc2c(NC3=NC[C@@]4(C[N@@]5CC[C@@H]4C5)O3)ncnc12 [Example 28, (3R,4R)—N-(7-Methylthieno[3,2-d]pyrimidin-4-yl)-4′H-1-azaspiro[bicyclo[2.2.1]heptane-3,5′-oxazol]-2′-amine] | 100 to 1000 |  | EC50 ([2]; FLIPR α7-HI (EC50, nM), agonist potency): 222 nM
8 | Cc1ccc2nc(NC3=NC[C@@]4(C[N@@]5CC[C@@H]4C5)O3)oc2c1 [Example 29, (3R,4R)—N-(6-Methylbenzo[d]oxazol-2-yl)-4′H-1-azaspiro[bicyclo[2.2.1]heptane-3,5′-oxazol]-2′-amine] |  | < 100 | 
